Results taken from patent US20190124924A1, “FUNGAL CONTROL OF WHITE MOLD” (DOW AGROSCIENCES LLC, priority 2015, published 2019).

What was measured:
Sclerotinia sclerotiorum [1] = experiment: Field trials in oilseed rape, incidence of white mold and yield; format: in vivo; details: single application; for Yield of Oilseed Rape: untreated 4.08; for Percent (%) Incidence of Sclerotinia sclerotiorum at B65-B67 Growth Stage in Oilseed Rape: untreated 55
Sclerotinia sclerotiorum [2] = experiment: Inhibition of Sclerotinia sclerotiorum on detached soybean leaves; format: in vivo; details: read-out: Percent (%) Inhibition of Sclerotinia sclerotiorum on Detached Soybean Leaves
Protocol: Evaluation of Inhibition of Sclerotinia sclerotiorum on Detached Soybean Leaves: Detached leaves of soybean were immersed for 3 seconds (s) in fungicide solutions at different concentrations and placed in Petri dishes. […] Symptoms were assessed for percent disease severity. Three leaves per plate with three replicates in a completely randomized design. Treatments consisted of fungicide compounds including Formula I, fluazinam, thiophanate-methyl, and procymidone.

Sclerotinia sclerotiorum [3] = experiment: Field trial in dry bean, incidence of white mold; format: in vivo; details: two applications R5 and R6, untreated 12.5
Protocol: A field trial in dry bean was carried out in the state of Sao Paulo, Brazil. Two applications of the fungicides were done at growth stages R5 (first bloom) and R6 (full bloom) by using a carbon dioxide (CO2) backpack sprayer at an application rate of 600 liters per hectare (Uha). […] Treatments consisted of fungicide compounds including Formula I, fluazinam, thiophanate-methyl, and procymidone.

Sclerotinia sclerotiorum [4] = experiment: Inhibition of mycelial growth by fungicides in Petri dishes (growth medium + fungicide); format: cell-based; details: for inhibition at 0.1 ppm / inhibition at 1 ppm / inhibition at 10 ppm / inhibition at 100 ppm: Sclerotinia sclerotiorum, 192 h, read-out: Percent (%) Inhibition of Mycelial Growth of Sclerotinia sclerotiorum
Protocol: Evaluation of Inhibition of Mycelial Growth by Fungicides (Sclerotinia sclerotiorum; Bayer code: […]): The growth inhibition of the fungus (Sclerotinia sclerotiorum) was assessed in Petri dishes containing the growth medium+fungicide at different concentrations. […] The number of sclerotia were counted. A completely randomized design with three replicates was used. Treatments consisted of fungicide compounds including Formula I, fluazinam, thiophanate-methyl, and procymidone.

Structure (SMILES): OC(Cc1ccccc1Cl)(Cn1nc[nH]c1=S)C1(Cl)CC1 (racemic) [Prothioconazole, 2-[(2RS)-2-(1-chlorocyclopropyl)-3-(2-chlorophenyl)-2-hydroxypropyl]-2H-1,2,4-triazole-3(4H)-thione]
- Yield of Oilseed Rape (Sclerotinia sclerotiorum [1]; 150 g ai/ha): 4.4 T/ha
- Percent (%) Incidence of Sclerotinia sclerotiorum at B65-B67 Growth Stage in Oilseed Rape (Sclerotinia sclerotiorum [1]; 150 g ai/ha): 31%
- Yield of Oilseed Rape (Sclerotinia sclerotiorum [1]; 173 g ai/ha): 4.49 T/ha
- Percent (%) Incidence of Sclerotinia sclerotiorum at B65-B67 Growth Stage in Oilseed Rape (Sclerotinia sclerotiorum [1]; 173 g ai/ha): 20%

Structure (SMILES): O=C(Nc1ccccc1-c1ccc(Cl)cc1)c1cccnc1Cl [Boscalid, boscalid]
- Yield of Oilseed Rape (Sclerotinia sclerotiorum [1]; 250 g ai/ha): 4.34 T/ha
- Percent (%) Incidence of Sclerotinia sclerotiorum at B65-B67 Growth Stage in Oilseed Rape (Sclerotinia sclerotiorum [1]; 250 g ai/ha): 4%

Structure (SMILES): COc1ccnc(C(=O)N[C@H]2COC(=O)[C@H](Cc3ccccc3)[C@@H](OC(=O)C(C)C)[C@H](C)OC2=O)c1OCOC(=O)C(C)C [Compound I, (3S,6S,7R,8R)-8-benzyl-3-(3-((isobutyryloxy)methoxy)-4-methoxypicolinamido)-6-methyl-4,9-dioxo-1,5-dioxonan-7-yl isobutyrate]
- inhibition at 0.1 ppm (Sclerotinia sclerotiorum [2]): 8.63%
- inhibition at 1 ppm (Sclerotinia sclerotiorum [2]): 66.1%
- inhibition at 10 ppm (Sclerotinia sclerotiorum [2]): 92.5%
- inhibition at 100 ppm (Sclerotinia sclerotiorum [2]): 100%
- Percent (%) Incidence of Sclerotinia sclerotiorum at R7 Growth Stage on Dry Bean (Sclerotinia sclerotiorum [3]; 120 g ai/ha): 3.5%
- Percent (%) Incidence of Sclerotinia sclerotiorum at R7 Growth Stage on Dry Bean (Sclerotinia sclerotiorum [3]; 240 g ai/ha): 1%
- Number of Sclerotinia Formed per Colony (Sclerotinia sclerotiorum [4]; 0.1 ppm): 3.33
- Number of Sclerotinia Formed per Colony (Sclerotinia sclerotiorum [4]; 1 ppm): 2.33
- Number of Sclerotinia Formed per Colony (Sclerotinia sclerotiorum [4]; 10 ppm): 1.67
- Number of Sclerotinia Formed per Colony (Sclerotinia sclerotiorum [4]; 100 ppm): 1.33
- inhibition at 0.1 ppm (Sclerotinia sclerotiorum [4]): 28.3%
- inhibition at 1 ppm (Sclerotinia sclerotiorum [4]): 72.4%
- inhibition at 10 ppm (Sclerotinia sclerotiorum [4]): 80.7%
- inhibition at 100 ppm (Sclerotinia sclerotiorum [4]): 91%
- Yield of Oilseed Rape (Sclerotinia sclerotiorum [1]; 100 g ai/ha): 4.22 T/ha
- Percent (%) Incidence of Sclerotinia sclerotiorum at B65-B67 Growth Stage in Oilseed Rape (Sclerotinia sclerotiorum [1]; 100 g ai/ha): 24%
- Yield of Oilseed Rape (Sclerotinia sclerotiorum [1]; 130 g ai/ha): 4.29 T/ha
- Percent (%) Incidence of Sclerotinia sclerotiorum at B65-B67 Growth Stage in Oilseed Rape (Sclerotinia sclerotiorum [1]; 130 g ai/ha): 24%
- Yield of Oilseed Rape (Sclerotinia sclerotiorum [1]; 150 g ai/ha): 4.23 T/ha
- Percent (%) Incidence of Sclerotinia sclerotiorum at B65-B67 Growth Stage in Oilseed Rape (Sclerotinia sclerotiorum [1]; 150 g ai/ha): 19%
- Yield of Oilseed Rape (Sclerotinia sclerotiorum [1]; 200 g ai/ha): 4.48 T/ha
- Percent (%) Incidence of Sclerotinia sclerotiorum at B65-B67 Growth Stage in Oilseed Rape (Sclerotinia sclerotiorum [1]; 200 g ai/ha): 14%

Structure (SMILES): O=[N+]([O-])c1cc(C(F)(F)F)c(Cl)c([N+](=O)[O-])c1Nc1ncc(C(F)(F)F)cc1Cl [Fluazinam, fluazinam]
- inhibition at 0.1 ppm (Sclerotinia sclerotiorum [2]; 0.1 ppm, leaves immersed 3 s): 25.9%
- inhibition at 1 ppm (Sclerotinia sclerotiorum [2]; 1 ppm, leaves immersed 3 s): 53.5%
- inhibition at 10 ppm (Sclerotinia sclerotiorum [2]; 10 ppm, leaves immersed 3 s): 66.1%
- inhibition at 100 ppm (Sclerotinia sclerotiorum [2]; 100 ppm, leaves immersed 3 s): 100%
- Percent (%) Incidence of Sclerotinia sclerotiorum at R7 Growth Stage on Dry Bean (Sclerotinia sclerotiorum [3]; 500 g ai/ha): 0.8%
- Number of Sclerotinia Formed per Colony (Sclerotinia sclerotiorum [4]; 0.1 ppm): 5.7
- Number of Sclerotinia Formed per Colony (Sclerotinia sclerotiorum [4]; 1 ppm): 4.3
- Number of Sclerotinia Formed per Colony (Sclerotinia sclerotiorum [4]; 10 ppm): 0
- Number of Sclerotinia Formed per Colony (Sclerotinia sclerotiorum [4]; 100 ppm): 0
- inhibition at 0.1 ppm (Sclerotinia sclerotiorum [4]; 0.1 ppm, 22° C., 8 days): 59.7%
- inhibition at 1 ppm (Sclerotinia sclerotiorum [4]; 1 ppm, 22° C., 8 days): 71.6%
- inhibition at 10 ppm (Sclerotinia sclerotiorum [4]; 10 ppm, 22° C., 8 days): 82.6%
- inhibition at 100 ppm (Sclerotinia sclerotiorum [4]; 100 ppm, 22° C., 8 days): 100%

Structure (SMILES): CC12CC1(C)C(=O)N(c1cc(Cl)cc(Cl)c1)C2=O (centres unmarked) [Procymidone, procymidone]
- inhibition at 0.1 ppm (Sclerotinia sclerotiorum [2]; 0.1 ppm, leaves immersed 3 s): 19.5%
- inhibition at 1 ppm (Sclerotinia sclerotiorum [2]; 1 ppm, leaves immersed 3 s): 59.8%
- inhibition at 10 ppm (Sclerotinia sclerotiorum [2]; 10 ppm, leaves immersed 3 s): 85.1%
- inhibition at 100 ppm (Sclerotinia sclerotiorum [2]; 100 ppm, leaves immersed 3 s): 100%
- Number of Sclerotinia Formed per Colony (Sclerotinia sclerotiorum [4]; 0.1 ppm): 18.67
- Number of Sclerotinia Formed per Colony (Sclerotinia sclerotiorum [4]; 1 ppm): 16.2
- Number of Sclerotinia Formed per Colony (Sclerotinia sclerotiorum [4]; 10 ppm): 1.67
- Number of Sclerotinia Formed per Colony (Sclerotinia sclerotiorum [4]; 100 ppm): 0
- inhibition at 0.1 ppm (Sclerotinia sclerotiorum [4]; 0.1 ppm, 22° C., 8 days): 10%
- inhibition at 1 ppm (Sclerotinia sclerotiorum [4]; 1 ppm, 22° C., 8 days): 24.5%
- inhibition at 10 ppm (Sclerotinia sclerotiorum [4]; 10 ppm, 22° C., 8 days): 68.2%
- inhibition at 100 ppm (Sclerotinia sclerotiorum [4]; 100 ppm, 22° C., 8 days): 100%

Structure (SMILES): COC(=O)NC(=S)Nc1ccccc1NC(=S)NC(=O)OC [Thiophanate-Methyl, thiophanate-methyl]
- inhibition at 0.1 ppm (Sclerotinia sclerotiorum [2]; 0.1 ppm, leaves immersed 3 s): 20.7%
- inhibition at 1 ppm (Sclerotinia sclerotiorum [2]; 1 ppm, leaves immersed 3 s): 43.1%
- inhibition at 10 ppm (Sclerotinia sclerotiorum [2]; 10 ppm, leaves immersed 3 s): 87.4%
- inhibition at 100 ppm (Sclerotinia sclerotiorum [2]; 100 ppm, leaves immersed 3 s): 100%
- Number of Sclerotinia Formed per Colony (Sclerotinia sclerotiorum [4]; 0.1 ppm): 19.25
- Number of Sclerotinia Formed per Colony (Sclerotinia sclerotiorum [4]; 1 ppm): 17.56
- Number of Sclerotinia Formed per Colony (Sclerotinia sclerotiorum [4]; 10 ppm): 0
- Number of Sclerotinia Formed per Colony (Sclerotinia sclerotiorum [4]; 100 ppm): 0
- inhibition at 0.1 ppm (Sclerotinia sclerotiorum [4]; 0.1 ppm, 22° C., 8 days): 0%
- inhibition at 1 ppm (Sclerotinia sclerotiorum [4]; 1 ppm, 22° C., 8 days): 32.2%
- inhibition at 10 ppm (Sclerotinia sclerotiorum [4]; 10 ppm, 22° C., 8 days): 78.3%
- inhibition at 100 ppm (Sclerotinia sclerotiorum [4]; 100 ppm, 22° C., 8 days): 100%
